The text below walks through data of EPA's ToxValDB 9.5 (doi:10.2903/j.efsa.2010.1669).

One may read the NOAEL as the highest dose or exposure tested at which no adverse effect was seen.

The test system of series [1] is Aphidius rhopalosiphi. Description: LR50; higher = less toxic. Particulars: not reported; mortality.
Series [2] deals with Daphnia magna. As to conditions: chronic/long-term; duration: 21 days; reproduction.
Series [3] relates to Oncorhynchus mykiss.
The test system of series [4] is Tagia sp. As to conditions: acute; duration: 14 days; mortality.
Series [5] has as its system Rattus norvegicus. Particulars: for NOAEL: body weight.
For series [6], the system named is Apis mellifera. Particulars: acute; duration: 48 hours; dermal; mortality.
Series [7] deals with Colinus virginianus. As to conditions: for LD50: acute, oral, mortality.
For series [8], the system named is Canidae. As to conditions: oral, Dog Other, organ weight.
The subject of series [9] is Oryctolagus sp. Particulars: developmental; development.

SMILES strings stand for the structures. In brackets after ≈: the same amount, converted by molar mass. Some results are limits rather than exact numbers.

In turn, `CCCC(=NOCC)C1=C(O)CC(C2CCCSC2)CC1=O` (stereo unspecified) [Cycloxydim] showed an LR50 in [1] of 90.2 g/ha. The NOEC in [2] came out at 62.5 mg/L; in [3] (chronic/long-term, duration: 28 days, growth), 21.5 mg/L; in series [7] (reproduction developmental) it was 65.4 mg/kg-day. In addition, the LC50 in [3] (acute, duration: 96 hours, mortality) was 220 µg/mL (≈ 676 µM); in series [4], over 1000 mg/kg. In addition, the LD50 was 3830 mg/kg-day in [5] (acute, oral, mortality); over 100 µg/piece in [6]; 497 mg/kg-day in series [7] (diet); over 2000 mg/kg-day in series [7]. The NOAEL was found to be 7 mg/kg-day in series [5] (chronic, duration: 18 months); 7 mg/kg-day in series [5] (chronic, duration: 24 months); 9.7 mg/kg-day in [5] (reproduction developmental); 10 mg/kg-day in [8] (chronic, duration: 1 years); 10 mg/kg-day in series [8] (subchronic, duration: 3 months); 200 mg/kg-day in [9].
